Series [1] in a line: Tissue distribution of 59Fe. The series is classed as in vivo, mouse. Particulars: iron deficient mice, 4 hours after oral gavage, compared with the other iron source. How it is done: Anaemic mice were generated using the method of Latunde-Dada et al, J. Nutr. 144 (2014) 1896-902. Mice (3 weeks old) were split into 4 groups (n=6), two groups were fed with normal iron diet (48 mg iron/Kg) and the other two with iron deficient diet (3 mg iron/kg) for 6 weeks. Before the experiment haemoglobin levels were measured to confirm the differences between the normal group and the iron deficient groups. The day before the treatment with ^59Fe labelled iron, all the mice were deprived of food overnight with water ad libitum. Normal (non anaemic) and iron deficient (anaemic) mice were gavaged with either 100 μl of the formulation of Example 4, or with ^59FeSO4-ascorbic acid (1:1) ([Fe]=21 mM). Four hours after the oral gavage the mice were sacrificed and tissues collected.
The tissues from the ^59Fe uptake study were used for an investigation of iron distribution (FIGS. 4-7). In the normal animals the majority of the iron is in the “carcase” (probably in blood and lymph).

The test system of a further series is anaemic mice. The series is described as follows: Haemoglobin levels in anaemic mice after treatment with oral iron (haemoglobin repletion study). The format is in vivo, CD1 mice. To be noted: 10 days of gavage (Fe; 21 mM, 100 μl). An excerpt:
The procedure for this study was adopted from well established techniques (Kajarabille et al, Brit. J. Nutrition, 117 (2017) 767-774) (FIG. 8). There was a change of haemoglobin levels between the anaemic (12.8±2.4 g/dL) and normal animals (19.55±2.4 g/dL) (FIG. 9).
Male CD1 mice (3 weeks of age) were made Fe deficient by feeding a low-iron diet of 3-mg Fe/Kg diet based on the modified AIN-76A purified rodent diet (TD.80396; Harlan Teklad) for 3 weeks (i.e., until they were 6 weeks of age). Another group of mice were placed on a normal iron-sufficient diet (48-mg Fe/Kg diet) (TD.80394; Harlan Teklad) to serve as control. The diets were of identical composition except that the iron-sufficient diet contained iron added as ferric citrate. After this, blood was withdrawn from the tails to determine the initial Hb concentrations of the mice. The Fe-deficient mice were then divided into the treatment groups based on similar Hb concentrations. […] After the 10 days, the mice were weighed, anaesthetized, and blood samples were taken for Hb, serum iron, and serum ferritin determinations. The mice were then killed by anaesthesia followed by neck dislocation, and the spleen, duodenum, kidney, and liver samples were excised, snap frozen in liquid nitrogen, and stored at −70° C. until further analysis.

The next series concerns malondialdehyde (MDA). The series is described as follows: Toxicity study: lipid peroxidation (MDA measurement). The series is classed as in vivo, CD1 mice. Particulars: anaemic mice, 20 mM Fe, 100 μL, 10 days; ANOVA one-way test. How it is done:
(§1) After the last dose, the mice were provided with water ad libitum for 18 hours before sacrifice and collection of tissues. Tissues were stored at −70° C. until subjection to various toxicological investigations. […] Tests were made with respect to the following parameters: • 1. Lipid peroxidation (MDA measurement) • 2. GSH levels • 3. Catalase levels • 4. Non-heme iron levels • 5. Plasma ferritin levels Methodology
(§2) The collection of the duodenum was achieved by taking the first 5 cm after the pylorus. The section was opened transversally, and the mucosa was removed using a glass slide.
Lipid peroxidation was measured by the detection of the endpoint product malondialdehyde (MDA), using the MDA microplate assay kit from Cohesion Biosciences (catalog number CAK1011). Liver tissue (70 mg) or duodenal mucosa (20 mg) were weighed and homogenized in assay buffer according with instructions of the kit manufacturer. All the samples were kept in ice during the assay. The dye reagent (Thiobarbituric acid) was brought at room temperature 30 min before the assay performance. […] The protein concentration of the extracts was analysed with the Bradford assay protocol and the MDA values were normalized against protein content.

The next series deals with reduced GSH. The series is described as follows: Toxicity study: reduced GSH levels (ELISA). The series is classed as in vivo, CD1 mice. Particulars: anaemic mice, 20 mM Fe, 100 μL, 10 days. The procedure:
as §1, §2
The assay was performed according to manufacturer's instructions.
In general terms: ELISA stands for enzyme-linked immunosorbent assay.

Another series has as its system catalase. The series is described as follows: Toxicity study: catalase levels. The format is in vivo, CD1 mice. Particulars: anaemic mice, 20 mM Fe, 100 μL, 10 days; ANOVA one-way test. How it is done:
as §1, §2
The activity of catalase enzyme was detected by using a Catalase Kit (Arbor assay company, Catalogue number K033-H1). Mice tissues were rinsed in PBS to take out the excess of blood and weighed (100 mg of liver or 20 mg duodenal mucosa). The procedure of sample preparation and assay was performed according to manufacturing instructions. The tissue samples were homogenized in ice-cold assay medium with a glass homogenizer, centrifuged at 10,000×g for 15 min at 4 degrees. The supernatant was collected to continue with the assay. A standard with catalase-hydrogen peroxide enzyme was measured within 30 min after reconstitution. The produced colour reaction was read at 450 nm using a plate reader.

Series [2] in a line: Non-heme iron levels in liver. The series is classed as in vivo, CD1 mice. To be noted: anaemic mice, 20 mM Fe, 100 μL, 10 days. The procedure: as §1
Non-heme iron was assayed according to the method of Foy et al. (Analytical Biochem. 1967; 18:559-563) as modified by Simpson & Peters (Br J Nutr. 1990; 63:79-89). Liver tissue was washed in ice-cold PBS, weighted (70 mg), and homogenized (1:5 w:v) in 0.15M NaCl-HEPES buffer (pH 7.4) with a glass Dounce homogenizer. 100 μl of the resulted extracted was boiled with 200 μl of TCA-sodium pyrophosphate and boil for 10 min, centrifuged at 10,000 RPM and collected the supernatant, the boiled extraction and centrifugation was repeated twice. From the total supernatant collection, 200 μL was mixed with 100 μL 4 of 0.23M ascorbic acid, 80 µL of 10 mM ferrozine and 420 μL of 2.0 M sodium-buffer acetate (pH 4.8). All samples were measured at 562 nm against the blank and compare with standard values.

The subject of the next series is ferritin. The series is described as follows: Plasma ferritin levels (mouse ELISA kit). The series is classed as in vivo, CD1 mice. To be noted: anaemic mice, 20 mM Fe, 100 μL, 10 days. How it is done: as §1
In this assay, the ferritin present in plasma samples reacts with the anti-Ferritin antibodies which have been adsorbed to the surface of polystyrene microliter wells. The assay was performed with a kit provided by Abcam company (Catalogue number, ab157713 Ferritin, mouse ELISA kit). The plasma samples were diluted 1:40 with the assay diluent provided in the kit. The amount of enzyme bound in the complex was measured by the addition of a chromo-genic substrate, 3,3′,5,5′-tetramethylbenzidine (TMB). The colorimetric reaction was measured at 450 nm in a plate reader. The quantity of ferritin in the test sample was interpolated from the standard curve with known concentrations of ferritin.

`O=S(=O)([O-])[O-].[Fe+2]` [FeSO4]: the “Fe distribution in the liver” value in series [1] is “greater distribution of Fe in the liver”. Also, the haemoglobin levels result with anaemic mice is listed as “increased the haemoglobin levels in anaemic mice to those of normal mice”. In the series on malondialdehyde (MDA), the “concentration of malondialdehyde (MDA) in duodenal mucosa” value is recorded as “no statistical differences between the groups” and the “concentration of malondialdehyde (MDA) in liver” value was “no statistical differences between the groups”. Moreover, the “concentration of reduced GSH in liver” value in the series on reduced GSH (ANOVA one-way test) is given as “no statistical differences between the groups”. In addition, the “concentration of reduced GSH in duodenal mucosa” value with reduced GSH (P≤0.05, ANOVA one-way test) is recorded as “higher levels of GSH in duodenum in comparison with the untreated group”. Also, in the series with catalase, the “catalase activity in duodenal mucosa” value is recorded as “no statistical differences between the groups” and the “catalase activity in liver” value was “no statistical differences between the groups”. Also, the “non-heme iron levels in liver, Mean” value in series [2] is recorded as 0.3637 nmol/mg. In addition, the plasma ferritin levels result with ferritin was “lower than that of normal mice”.

The values above are taken from patent US12213992B2, “Iron containing composition and use thereof” (RENAPHARMA AB, priority 2018, dated 2025).
